Several values for one entry are separate records, joined by “and”; a condition that tells them apart may be missing. Equal values may be shown once. Read-outs that look alike come from different tables or passages of the source.
How the values were obtained:
SARS-CoV-2 [1] = assay: Cell-associated virus RNA in SARS-CoV-2-infected human primary monocytes; type: cell-based; conditions: for Cell-associated virus RNA loads, inhibition (Fig1C source data, per donor): monocytes
Description: Human primary monocytes were obtained after 3 h of plastic adherence of peripheral blood mononuclear cells (PBMCs). The use of primary human cell was approved by Institutional Review Board from the Oswaldo Cruz Foundation under protocol 49971421.8.0000.5248 with signed informed consent in accordance with the Hemotherapy Service of Hospital Clementino Fraga from the Federal University of Rio de Janeiro. All volunteers were de-identified. PBMCs were isolated from healthy donors by density gradient centrifugation (Ficoll-Paque, GE Healthcare). PBMCs (2.0 × 10^6 cells) were plated onto 48-well plates (NalgeNunc) in RPMI-1640 without serum for 2–4 h. Nonadherent cells were removed, and the remaining monocytes were maintained in DMEM with 5% human serum (HS; Millipore) and penicillin/streptomycin. The purity of human monocytes was above 95%, as determined by flow cytometric analysis (FACScan; Becton Dickinson) using anti-CD3 (BD Biosciences, cat # 555342, 1:40), anti-CD16 (Southern Biotech, cat # 561313, 1:20) and APC mouse IgG2a isotype (BD Biosciences, cat # 550882, 1/40) and PE mouse IgG1 isotype (BD Biosciences, 555749, 1/20).
Total viral RNA from a culture supernatant and/or monolayers was extracted using QIAamp Viral RNA (Qiagen®) according to the manufacturer’s instructions. Quantitative RT‒PCR was performed using GoTaq® Probe qPCR and RT-qPCR Systems (Promega) in a StepOne™ Real-Time PCR System (Thermo Fisher Scientific) ABI PRISM 7500 Sequence Detection System (Applied Biosystems). Amplifications were carried out in 25 µL reaction mixtures containing 2× reaction mix buffer, […] of each primer, 10 µM of probe, and 5 µL of RNA template. Primers, probes, and cycling conditions recommended by the Centers for Disease Control and Prevention (CDC) protocol were used to detect SARS-CoV-2[52]. The standard curve method was employed for virus quantification. For reference to the cell amounts used, the housekeeping gene RNAse P (F-5′-[…] -3′, R-5′[…] -3′, P-5′-FAM-[…] -BHQ-1-3′) was amplified. The Ct values for this target were compared to those obtained for different cell amounts, 10^7 to 10^2, for calibration.

SARS-CoV-2 RNA = assay: RNA immunoprecipitation with anti-kinetin antibody, infected Calu-3 cells; type: cell-based
[2] = MB-905 and metabolites in rat lung; type: in vivo, Sprague-Dawley rats (Rattus norvegicus); conditions: 30 mg/kg oral
Description: Noncompartmental data analysis was performed using Phoenix WinNonlin®.
Pharmacokinetics in rodent plasma was performed in CD1 mice (Mus musculus, 20–30 g) and Sprague‒Dawley rats (Rattus norvegicus, 250–300 g) of both sexes. […] After oral or intravenous administration, blood samples were collected at times of 0.25, 0.5, 1, 2, 4, 8, and 24 and 0.083, 0.25, 0.5, 1, 2, and 4 h. Parameters such as area under the curve (AUC), time taken to reach the maximum concentration (Tmax), time taken for Cmax to drop in half (T 1/2), volume of distribution, clearance, elimination constant and bioavailability (F) were evaluated. Bioavailability was calculated using the following equation: F (%) = [(intravenous dose x oral AUC)/(oral dose × intravenous AUC)] × 100. […] Animals were treated orally with MB-905 as previously described. Animals were sacrificed at different time points after treatments, and lungs were immediately removed, placed in liquid nitrogen at −80 °C and processed for further analysis. For the analysis of plasma and lung supernatant, UPLC–MS/MS equipment was used.
Supplementary Fig. 6. Pharmacokinetic and putative metabolites of MB-905 in rats. a, […]
plasma (n = 6); b, Single oral dose (30 mg/kg bodyweight) pharmacokinetics properties of MB- […]
mg/kg, p.o.) (n=5) d, Single oral dose (30 mg/kg bodyweight) pharmacokinetics properties of […]
(30 mg/kg, p.o.) (n=3) f, Single oral dose (30 mg/kg bodyweight) pharmacokinetics properties of […]

[3] = Pharmacokinetics and metabolites in rat plasma; type: in vivo, Sprague-Dawley rats (Rattus norvegicus); design: MB-905 in rat plasma (Fig4B source data, per animal) / MB-905 in rat plasma (Fig4A source data, per animal): unit not given here; conditions: for MB-905 in rat plasma (Fig4A source data, per animal): 1 mg/kg i.v.; for MB-905 in rat plasma (Fig4B source data, per animal): 30 mg/kg oral; for k el: read-out: Ke (converted)
SARS-CoV-2 [4] = assay: Combination of RdRp inhibitors with SARS-CoV-2 nsp14 inhibitors in infected Calu-3 cells, synergy; type: cell-based; conditions: for Response (Fig3C source data for synergy analysis): DTG 0 nM
SARS-CoV-2 gamma VoC = system: SARS-CoV-2 gamma VoC; design: species or system K18-hACE2 mice (Mus musculus); conditions: mouse, in vivo
[5] = MB-905-treated infected Calu-3 cells
[6] = both sexes, Sprague-Dawley, rat, plasma, iv, rats, 1 mg/kg (i.v.)
[7] = both sexes, Sprague-Dawley, rat, plasma, po, rats, 30 mg/kg (p.o.)
[8] = infected Calu-3, compound alone at 10 uM

c1coc(CNc2ncnc3[nH]cnc23)c1 [MB-905, N6-furfurylaminopurine]
Cell-associated virus RNA levels in SARS-CoV-2-infected monocytes (SARS-CoV-2 [1]; Fig. 1c): reduced cell-associated virus RNA levels in a concentration-dependent manner | Cell-associated virus RNA loads, inhibition (Fig1C source data, per donor) (SARS-CoV-2 [1]; 24 h, Drug 1): 41 and 30 and 63 and 20 and 2 (2×) | Cell-associated virus RNA loads, inhibition (Fig1C source data, per donor) (SARS-CoV-2 [1]; 24 h, Drug 10): 93 and 42 and 46 and 13 and 6 and 12 | Cell-associated virus RNA loads, inhibition (Fig1C source data, per donor) (SARS-CoV-2 [1]; MOI 0.1, 24 h, Drug 0.1): 2 (3×) and 5 and 3 and 1 | Viral RNA immunoprecipitated with anti-kinetin antibody (Ab) (Fig2C source data) (SARS-CoV-2 RNA; [5]): 149.09 and 145.01 and 123.64 and 134.36 | Viral RNA immunoprecipitated with isotype control (Iso) (Fig2C source data) (SARS-CoV-2 RNA; [5]): 2.52 and 2.29 and 2.30 and 2.50 | Enrichment of viral RNA in anti-N6-furfuryladenine IP compared to isotype control and nil-treated cells (SARS-CoV-2 RNA; infected Calu-3 cells): more than 10 fold | MB-905 in rat lung (Fig4C source data, per animal) ([2]; 1 h): 231.05 and 263.97 and 218.08 | MB-905 in rat lung (Fig4C source data, per animal) ([2]; 2 h): 360.89 and 345.91 and 313.18 | MB-905 in rat lung (Fig4C source data, per animal) ([2]; 4 h): 100.91 and 155.47 and 69.56 | MB-905 in rat lung (Fig4C source data, per animal) ([2]; 8 h): 7.77 and 46.28 and 12.38 | MB-905 in rat lung (Fig4C source data, per animal) ([2]; 12 h): 0 | MB-905 in rat plasma (Fig4A source data, per animal) ([3]; 0.083 h): 122.29 and 142.1 and 107.27 and 127.39 and 93.94 | MB-905 in rat plasma (Fig4A source data, per animal) ([3]; 0.25 h): 82.46 and 129.29 and 128.28 and 120.23 and 112.61 | MB-905 in rat plasma (Fig4A source data, per animal) ([3]; 0.5 h): 65.31 and 60.03 and 69.73 and 52.81 and 69.66 | MB-905 in rat plasma (Fig4A source data, per animal) ([3]; 1 h): 28.25 and 16.64 and 9.33 and 14.09 and 7.19 and 13.17 | MB-905 in rat plasma (Fig4A source data, per animal) ([3]; 2 h): 1.74 and 1.82 and 1.9 and 1.56 and 1.91 | MB-905 in rat plasma (Fig4A source data, per animal) ([3]; 3 h): 0.61 and 1.31 and 1.15 (3×) and 1.21 | MB-905 in rat plasma (Fig4B source data, per animal) ([3]; 0.25 h): 397.32 and 362.53 and 415.61 and 353.44 | MB-905 in rat plasma (Fig4B source data, per animal) ([3]; 1 h): 263.22 and 231.26 and 292.83 and 229.84 | MB-905 in rat plasma (Fig4B source data, per animal) ([3]; 2 h): 88.19 and 121.59 and 183.67 and 211.01 and 229.72 | MB-905 in rat plasma (Fig4B source data, per animal) ([3]; 3 h): 243.45 and 113.36 and 86.5 and 220.24 and 141.51 | MB-905 in rat plasma (Fig4B source data, per animal) ([3]; 5 h): 154.28 and 65.58 and 86.37 and 126.88 and 27.06 | MB-905 in rat plasma (Fig4B source data, per animal) ([3]; 8 h): 116.98 and 84.1 and 84.26 and 4.12 and 35.08 | MB-905 in rat plasma (Fig4B source data, per animal) ([3]; 12 h): 1.46 and 1.1 and 5.1 and 3.6 and 2.01 | bioavailability ([3]; both sexes, Sprague-Dawley, rat, plasma, iv, 1 mg/kg, rats, 1 mg/kg (i.v.), read-out: F): 100% | AUC [3, 6]: 77.1 ng·h/mL | AUC(0-t) [3, 6]: 77.1 ng·h/mL | Cmax [3, 6]: 124 ng/mL | Tmax [3, 6]: 4.98 min | clearance [3, 6]: 214 mL/min/kg | half-life [3, 6]: 33.6 min | k el [3, 6]: 0.000342 s⁻¹ | Vd ([3]; both sexes, Sprague-Dawley, rat, plasma, iv, rats, 1 mg/kg (i.v.), read-out: Vz): 10.4 L/kg | bioavailability ([3]; both sexes, Sprague-Dawley, rat, plasma, po, 30 mg/kg, rats, 30 mg/kg (p.o.), read-out: F): 64.7% | bioavailability ([3]; both sexes, Sprague-Dawley, rat, plasma, po, 30 mg/kg, rats, read-out: Oral bioavailability): > 50% | AUC [3, 7]: 1500 ng·h/mL | AUC(0-t) [3, 7]: 1500 ng·h/mL | Cmax [3, 7]: 370 ng/mL | Tmax [3, 7]: 15 min | half-life [3, 7]: 229 min | k el [3, 7]: 5e-05 s⁻¹ | CL ([3]; rats, 30 mg/kg (p.o.)): 330.53 mL/min/kg | Vz ([3]; rats, 30 mg/kg (p.o.)): 109.18 L/kg | Response (Fig3C source data for synergy analysis) (SARS-CoV-2 [4]; MB-905 10 nM): 8 | Response (Fig3C source data for synergy analysis) (SARS-CoV-2 [4]; MB-905 100 nM): 17 | Response (Fig3C source data for synergy analysis) (SARS-CoV-2 [4]; MB-905 1000 nM): 44 | Response (Fig3C source data for synergy analysis) (SARS-CoV-2 [4]; MB-905 10000 nM): 89 | EC50 (SARS-CoV-2 [4]; Severe acute respiratory syndrome coronavirus 2, Calu-3, read-out: EC50 mean): 0.3 µM | EC90 (SARS-CoV-2 [4]; Severe acute respiratory syndrome coronavirus 2, Calu-3, read-out: EC90 mean): 8 µM | Virus productive titers (Fig3A source data, replicates) (SARS-CoV-2 [4]; [8]): 60000 and 46000 and 56000 | Virus productive titers (Fig3B source data, replicates) (SARS-CoV-2 [4]; [8]): 60000 and 46000 and 52000 | survival event code per animal (Fig5D) (SARS-CoV-2 gamma VoC): 1 (4×) and 0 (2×) | Body weight (SARS-CoV-2 gamma VoC; 140 mg/kg/day): recovered their body weight | Survival (SARS-CoV-2 gamma VoC; 140 mg/kg/day): survived after two weeks
